Measured values: patent publication US20110212434A1, “NOVEL HIV-BASED RECOMBINANT VIRAL CLONES AND USE THEREOF IN ANALYTICAL METHODS” (priority 2004, published 2011)

System: virus with the mutations M41L, K07R, T215F, K219Q
Assay: Determination system for phenotypic resistances to antiretroviral drugs (renilla activity, recombinant viral clones)
Type: cell-based, HIV
Conditions: K219Q versus wild type virus, FIG. 2b
Experimental: It can be schematically seen in FIGS. 1a and 1b how the viral particles are produced in culture supernatants during the 48 hours following transfection of the recombinat virus carrying viral sequences amplified from patients's plasma in 293T cells. The 293T cell line was obtained from the Deposit of the ATCC. The progeny of recombinant viruses are collected 48 hours after transfection in and used to infect the SSPA-B7 clone as target. This cellular clone was obtained by the applicant from the MT-2 cell line by means of transfection of an expression vector of the gene CCR5 provided with a resistance marker for Genetycin. Expression of both major viral coreceptors (CCR5 as a transgene and CXCR4 naturally) allows the infection with viral carrying different envelopes that use CCR5, CXCR4 receptors or both. […] The capacity of the viruses to complete a replication cycle is quantified by measuring the luciferase activity in the target cells. When phenotypic resistance to protease inhibitors is analyzed, the drug should be added to the producer cell (293-T) because viral morphogenesis driven by the protease is generated in this step of the viral cycle. In contrast, phenotypic resistance towards inhibitors of reverse transcriptase and of entry is measured by adding the drugs to the infected cells because such processes (entry and retrotranscription) take place in the target cell. […]

In the case of Cc1cn([C@H]2C[C@H](N=[N+]=[N-])[C@@H](CO)O2)c(=O)[nH]c1=O [AZT], the “Fold (AZT resistance)” value is reported as 36.
